Laboratory results reported in PMC10287566, “Signaling-specific inhibition of the CB1 receptor for cannabis use disorder: phase 1 and phase 2a randomized trials” (Nature Medicine, 2023).
Read-outs that look alike come from different tables or passages of the source.

Key:
[1] = test system: THC behavioral effects; experiment: Inhibition of THC effects in vivo (summary over behavioral models); design: species or system mice, rats and non-human primates
Protocol: Statistical analyses were carried out using GraphPad Prism, Statistica (Statsoft) or SigmaPlot (Systat Software) software. […] When appropriate, significant main effects were analyzed by subsequent multiple paired comparisons or multiple comparisons versus the control group using the appropriate post hoc test (Dunnett, Tukey or Sidak test). Different but similar post hoc tests were used because the experiments were performed by independent research groups that used similar but not identical statistical procedures. […] For non-parametric analysis, a Kruskal–Wallis ANOVA was used, followed, when appropriate, by the Mann–Whitney test for pairwise comparisons. Unless otherwise stated, all the performed statistical tests were two-sided. The ID50 or IC50 was estimated by nonlinear regression using the ‘log(inhibitor) versus response’ equation model with GraphPad Prism software. All results are expressed as mean ± s.e.m. The significance threshold was set at P < 0.05.

[2] = test system: mice; experiment: THC-induced impairment of pre-pulse inhibition; format: in vivo
[3] = test system: mice; experiment: THC-induced catalepsy (bar test); format: in vivo
[4] = test system: mice; experiment: Glucocorticoid (corticosterone) secretion in mice; format: in vivo; conditions: mice, highest dose tested 10 mg/kg
Protocol: Blood sampling was performed 2, 5, 8 and 24 h after dosing (n = 3 per sex per dose per sampling time). For blood sampling, mice were anaesthetized under isoflurane, and blood was collected by cardiac puncture. Blood was centrifuged, and plasma was taken and frozen at −80 °C until quantifications of corticosterone by GC–MS/MS.

[5] = test system: healthy volunteers; format: in vivo, human; conditions: SAD
Protocol: (§1) Participants were admitted to the research clinic at midday before dosing (day −1). In the SAD study, they remained in-house until day 8 for PK and PD samples and safety assessments. In the MAD study, participants remained in-house until day 14 and returned to the research facility on an outpatient basis to have PK and safety assessments at 216 h and 264 h (day 16 and day 18) after their last dose (day 7). Safety monitoring (physical examinations, vital sign measurements, 12-lead ECGs, clinical safety laboratory tests and AE monitoring) were performed throughout the studies. Psychometrics tests (Bond & Lader VAS, Addiction Research Center Inventory (49-item short form) (ARCI-49) and Profile of Mood States 65 self-report items (POMS-65)) and the Columbia-Suicide Severity Rating Scale (C-SSRS) test were performed at baseline, before dose and at 4 h and 24 h after dose on day 1 and day 7 (MAD study, only) and C-SSRS only at 24 h.

[6] = test system: healthy volunteers; format: in vivo, human; conditions: MAD
Protocol: as §1

[7] = test system: volunteers with CUD; experiment: Phase 2a study, cannabis self-administration; format: in vivo, human
Protocol: Participants, in groups of 3−4, completed two 5-d inpatient periods (first period ‘A’ and second period ‘B’) separated by a ≥ 14-d outpatient washout. During the two testing periods, participants received AEF0117 or matching placebo in counterbalanced order (two dosing sequences: AEF0117 first or placebo first). Participants took capsules at 9:00 each day and then smoked a controlled amount of cannabis (approximately 67 mg of THC smoked over 6 min) 3.5 h later (12:30). Ratings of the subjective effects of cannabis were done five times after cannabis administration (20 min, 40 min, 60 min, 90 min and 120 min after cannabis) using a VAS (0–100 mm). […] Participants were told that the cannabis strength could vary from day to day and between participants but that the cannabis they each received at 12:30 that day was the strength available for self-administration that day.
On study days 2–5, beginning at 14:30, participants were given the option to self-administer individual puffs of cannabis (up to six puffs per timepoint) every 2 h until 20:30 (maximum of 24 puffs per day). Fifteen minutes before each self-administration opportunity, participants indicated the number of puffs they chose to purchase ($2 per puff), and they would pay for it (using faux money that was then subtracted from their study stipend) before receiving their individual ashtray, cannabis cigarette and lighter.

[8] = test system: rats; experiment: Respiration in unrestrained conscious rats (GLP)
[9] = molecular target: human CB1 (Homo sapiens, UniProt P21554); experiment: [3H]CP55,940 equilibrium binding, HEK293-hCB1 cell membranes; design: 3x hemagglutinin (3HA) (N); expressed in transfected cells; membrane preparation; conditions: up to 10 µM
human CB1, sequence (P21554 whole entry): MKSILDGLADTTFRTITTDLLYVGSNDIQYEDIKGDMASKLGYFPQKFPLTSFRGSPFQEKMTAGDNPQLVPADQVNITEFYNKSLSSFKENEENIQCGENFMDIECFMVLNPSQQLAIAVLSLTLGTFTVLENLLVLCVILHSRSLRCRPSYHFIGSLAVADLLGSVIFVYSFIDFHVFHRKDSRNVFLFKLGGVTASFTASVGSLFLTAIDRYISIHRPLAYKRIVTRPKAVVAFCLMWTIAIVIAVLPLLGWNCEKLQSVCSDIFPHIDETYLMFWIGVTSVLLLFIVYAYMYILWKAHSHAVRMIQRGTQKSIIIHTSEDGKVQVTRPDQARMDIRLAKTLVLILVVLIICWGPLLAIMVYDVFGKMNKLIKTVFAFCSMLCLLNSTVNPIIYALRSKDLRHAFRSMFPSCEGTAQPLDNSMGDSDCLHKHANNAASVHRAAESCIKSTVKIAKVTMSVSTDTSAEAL

[10] = Impairment of pre-pulse inhibition

Compound: COc1ccc(CO[C@H]2CC[C@@]3(C)C(=CC[C@H]4[C@@H]5CC[C@H](C(C)=O)[C@@]5(C)CC[C@@H]43)C2)cc1 [AEF0117, 3β-(4-methoxybenzyloxy)pregn-5-en-20-one]
- most observed ID50 for inhibiting the effects of THC ([1]; mice and non-human primates, oral): 5 µg/kg
- most observed ID50 for inhibiting the effects of THC ([1]; mice, rats and non-human primates): 5 µg/kg
- ID100 for THC effects in fewer cases ([1]; oral, 3 h before THC): 1.5 µg/kg
- most frequently observed ID100 for THC effects ([1]; oral, 3 h before THC): 15 µg/kg
- THC impairment in sensory motor gating (PPI) [2]: inhibited
- % Inhibition [2, 10]: 100%
- ID50 [2, 10]: 4.5 µg/kg
- ID100 [2, 10]: 15 µg/kg
- THC-induced catalepsy [3]: inhibited
- % Inhibition ([3]; Catalepsy): 50%
- ID50 ([3]; Catalepsy): 5 µg/kg
- ID100 ([3]; Catalepsy): 50 µg/kg
- Overall effect: increase in glucocorticoid secretion [4]: No
- ARCI 49 sub-scores ([5]; 0.2-6 mg vs placebo): No relevant trend
- Bond and Lader VAS (alertness, contentedness, calmness) ([5]; 0.2-6 mg vs placebo): No clinically relevant differences
- POMS 65 sub-scales ([5]; 0.2-6 mg vs placebo): No relevant trend
- C-SSRS: number of subjects with suicidal ideation or behavior ([5]; all doses 0.2-6 mg, Day 1 and Day 2): 0 n (%)
- ARCI 49 sub-scores ([6]; 0.6-6 mg vs placebo): No relevant trend
- Bond and Lader VAS (alertness, contentedness, calmness) ([6]; 0.6-6 mg vs placebo): No relevant differences between groups
- POMS 65 derived sub-scores ([6]; 0.6-6 mg vs placebo, except one outlier participant): no dose related trend
- C-SSRS: number of subjects with suicidal ideation or behavior ([6]; all doses 0.6-6 mg, Day 1 and Day 8): 0 n (%)
- cannabis self-administration ([7]; 1 mg, global crossover analysis): reduced
- number of individuals choosing to self-administer cannabis ([7]; Treatment or Treatment x Dose, McNemar's test): no significant effect
- adverse effects on respiration [8]: did not show any adverse effects
- effect on equilibrium binding of [3H]CP55,940 [9]: does not modify
